Measured values as given in article PMC2925389, “Pre-Steady-State Kinetic Analysis of Truncated and Full-Length Saccharomyces cerevisiae DNA Polymerase Eta” (Journal of Nucleic Acids, 2010).
Values belong to the compound of their own block, whether it stands above or below them.

Tests used:
truncated yPolη = target: T1, truncated yPolη (Saccharomyces cerevisiae, UniProt Q04049); test: pre-steady-state single-turnover nucleotide incorporation, rapid chemical quench; assay type: biochemical; conditions: 5 mM MgCl2, pH 7.5, 23°C
T1 construct: gene RAD30; catalytic core (polymerase domain) 1-513, lacks C-terminal residues 514-632; N-terminal tag MGSSH6SSGLVPRGSH
T1 sequence (Q04049 1-513): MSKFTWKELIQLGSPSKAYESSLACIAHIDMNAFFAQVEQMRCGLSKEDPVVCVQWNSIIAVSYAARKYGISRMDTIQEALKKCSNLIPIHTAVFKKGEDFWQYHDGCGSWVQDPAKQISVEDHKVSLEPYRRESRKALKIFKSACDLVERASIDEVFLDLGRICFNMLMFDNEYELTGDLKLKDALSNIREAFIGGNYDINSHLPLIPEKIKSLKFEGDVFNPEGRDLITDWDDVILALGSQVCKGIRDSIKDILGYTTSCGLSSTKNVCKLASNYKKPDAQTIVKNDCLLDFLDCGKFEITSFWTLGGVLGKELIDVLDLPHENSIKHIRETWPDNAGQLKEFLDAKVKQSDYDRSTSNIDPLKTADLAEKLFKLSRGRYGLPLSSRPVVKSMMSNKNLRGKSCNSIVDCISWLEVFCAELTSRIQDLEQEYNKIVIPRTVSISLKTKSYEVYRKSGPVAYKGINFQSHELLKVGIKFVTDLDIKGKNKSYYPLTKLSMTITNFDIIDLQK

full-length yPolη = target: T2, full-length yPolη (Saccharomyces cerevisiae, UniProt Q04049); test: as above; assay type: biochemical; conditions: 5 mM MgCl2, pH 7.5, 23°C
T2 construct: gene RAD30; full-length, residues 1-632, expressed and purified from yeast
T2 sequence (Q04049 1-632): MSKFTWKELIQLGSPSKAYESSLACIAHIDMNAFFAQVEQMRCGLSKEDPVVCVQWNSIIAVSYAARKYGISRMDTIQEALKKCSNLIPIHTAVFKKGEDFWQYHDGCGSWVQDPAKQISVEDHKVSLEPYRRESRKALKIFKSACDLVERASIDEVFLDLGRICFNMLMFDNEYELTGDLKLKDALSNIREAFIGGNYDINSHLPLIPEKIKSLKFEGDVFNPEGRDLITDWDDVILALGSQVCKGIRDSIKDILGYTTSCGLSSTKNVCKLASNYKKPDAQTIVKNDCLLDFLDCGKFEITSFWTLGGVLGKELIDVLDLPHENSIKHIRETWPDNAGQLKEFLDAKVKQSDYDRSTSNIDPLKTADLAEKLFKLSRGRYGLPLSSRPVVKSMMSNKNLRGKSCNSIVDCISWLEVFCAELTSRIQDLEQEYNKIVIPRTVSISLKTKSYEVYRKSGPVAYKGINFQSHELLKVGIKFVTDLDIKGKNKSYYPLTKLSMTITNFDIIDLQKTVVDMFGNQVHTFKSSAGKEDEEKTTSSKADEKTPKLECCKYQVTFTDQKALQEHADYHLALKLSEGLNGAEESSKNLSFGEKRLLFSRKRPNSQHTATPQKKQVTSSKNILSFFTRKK
Excerpt: pre-steady-state single-turnover nucleotide incorporation, rapid chemical quench on full-length yPolη

[1] = mismatched dNTP opposite template dA (D-1 21/41-mer DNA)
[2] = correct dNTP opposite template dA (D-1 21/41-mer DNA)

Kd (truncated yPolη; correct dNTP opposite template dT (D-7 21/41-mer DNA)): 17 ± 3 µM
Kd (full-length yPolη; [1]): 156 ± 7 µM
SMILES: Nc1ncnc2c1ncn2[C@H]1C[C@H](O)[C@@H](COP(=O)(O)OP(=O)(O)OP(=O)(O)O)O1 [dATP]

Kd (truncated yPolη; correct dNTP opposite template dG (D-6 21/41-mer DNA)): 11.2 ± 0.8 µM
Kd (full-length yPolη; [1]): 70 ± 10 µM
SMILES: Nc1ccn([C@H]2C[C@H](O)[C@@H](COP(=O)(O)OP(=O)(O)OP(=O)(O)O)O2)c(=O)n1 [dCTP]

Kd (truncated yPolη; correct dNTP opposite template dC (D-8 21/41-mer DNA)): 6.8 ± 0.4 µM
Kd (full-length yPolη; [1]): 170 ± 40 µM
SMILES: Nc1nc2c(ncn2[C@H]2C[C@H](O)[C@@H](COP(=O)(O)OP(=O)(O)OP(=O)(O)O)O2)c(=O)[nH]1 [dGTP]

Kd (truncated yPolη; [2]): 15 ± 2 µM
Kd (full-length yPolη; [2]): 40 ± 10 µM
SMILES: Cc1cn([C@H]2C[C@H](O)[C@@H](COP(=O)(O)OP(=O)(O)OP(=O)(O)O)O2)c(=O)[nH]c1=O [dTTP]
